Measured values: paper PMC5048545 (Journal of molecular biology, 2016)

Columns and labels:
[1] = molecular target: T1, carboxysome-associated PII protein (CPII) (Thiomonas intermedia, UniProt D5X329); test: crystal structures; format: binding
[2] = molecular target: T1, carboxysome-associated PII protein (CPII)

| Kd [1] [µM] | Structure (SMILES) | crystal structure; EPR titration [2] |
| --- | --- | --- |
| 1800 | Nc1ncnc2c1ncn2[C@@H]1O[C@H](COP(=O)(O)O)[C@@H](O)[C@H]1O [AMP] | – |
| – | O=C(O)O [bicarbonate] | Bicarbonate molecules bind in nooks formed by Gly-101 and Arg-102, which immediately precede the C-loop α-helix |
